What was measured:
Type in all cases: physicochemical
[1] = UV-visible absorbance spectra; conditions: for absorbance maximum (longer wavelength) / absorbance maximum (shorter wavelength): 50 mM sodium tetraborate buffer pH 9.8; for molar extinction coefficient: at 456 nm
Procedure: (§1) Standard UV-visible and fluorescence spectra were recorded in 50 mM sodium tetraborate buffer pH 9.8 at 0.5-10 μM fluorescent compounds concentration. The fluorescence quantum yield of the fluorescent compounds was determined as described by Adamczyk et al. (previously cited) using alkaline solution of fluorescein as a reference (φ=0.92) (Lohse et al.; Adamczyk et al.; Klonis et al. and Martin et al., all previously cited).

[2] = Fluorescence emission spectra and fluorescence quantum yield; conditions: for fluorescence emission λmax: 50 mM sodium tetraborate buffer pH 9.8; for fluorescence quantum yield φ: alkaline fluorescein as reference
Procedure: as §1

[3] = pH effect on fluorescence; conditions: range of pH 4.0-10.0; λexc 488 nm/λem 515 nm
Procedure: To measure the pH effect on fluorescence, 50 nM of fluorescent compounds k) (dye 15) or l) (dye 16) solution in 50 mM sodium tetraborate buffer (pH 9.8) was slowly titrated with HCl, aliquots were taken between pH 9.8 and 4, and fluorescence was measured at λexc 488 nm/λem 515 nm.

[4] = Stability of 2'-ester toward alkaline hydrolysis; conditions: several hours in aqueous pH 9.8 buffer
Excerpt: This is explained by the absence of ionic equilibrium in 3-O-alkyl fluorescein derivatives trapped in a tautomeric quinoid form by 2′-esterification. The stability of 2′-ester toward an alkaline hydrolysis was also checked by following the absorbance and fluorescence spectra.

[5] = Dye photostability (photobleaching) study under fluorescence microscope; conditions: after 6 min of irradiation
Procedure: Super-Teflon glass slides (VWR International) carrying 40 circular wells of 2 mm diameter, separated by 30 μm-thick Teflon coating were used in dye photostability study. A well was filled with 1 μl of 5 mM fluorescein compounds k) (dye 15) or 1) (dye 16) solution in 50 mM sodium tetraborate buffer pH 9.8 and was enclosed with a coverslip.
The entire well volume was irradiated under the microscope with standard “fluorescein” filters set. The intensity delivered by the source on the surface of the slide was measured with a COHERENT LaserCheck probe, and found to be ˜6 mW/cm^2 at 488 nm. Well images were recorded regularly with IMSTAR software and mean fluorescence intensity was calculated.
For comparison of the photostability of fluorophores under the condition of signal acquisition with fluorescent microscope, the sample was placed in a well on the surface of a glass slide that contains 40 circular wells of 2 mm diameter, separated by 30 μm-thick Teflon coating. The well was then enclosed with a coverslip producing a cylindrical sample chamber of ˜380 nl volume. […] The resulted light intensity at the chamber level was measured to be ˜6 mW/mm^2. At different times the fluorescence images of the well were taken and mean fluorescence intensity was calculated using IMSTAR software (Khomyakova et al., previously cited).

absorbance maximum (longer wavelength) [1] [nm]	absorbance maximum (shorter wavelength) [1] [nm]	molar extinction coefficient [1] [L/mol/cm]	fluorescence emission λmax [2] [nm]	fluorescence quantum yield φ [2]	pH-dependence of fluorescence and quantum yield [3]	changes in absorbance and fluorescence spectra (2'-ester alkaline hydrolysis) [4]	decrease in fluorescence [5] [%]	Structure (SMILES)
481	456	22000	520	0.19	virtually pH-independent	No significant changes	~10	CCOC(=O)c1cc(NC(C)=O)ccc1-c1c2ccc(=O)cc-2oc2cc(OCC(=O)O)ccc12 [k), 5-acetylamino-2-(6-carboxymethoxy-3-oxo-3H-xanthen-9-yl)-benzoic acid ethyl ester]
481	456	23000	520	0.18	virtually pH-independent	No significant changes	~10	CCOC(=O)c1ccc(NC(C)=O)cc1-c1c2ccc(=O)cc-2oc2cc(OCC(=O)O)ccc12 [l), 4-acetylamino-2-(6-carboxymethoxy-3-oxo-3H-xanthen-9-yl)-benzoic acid ethyl ester]

Reference: patent US20080275215A1, “Fluorescein-Based Compounds And Their Use For Peptide Synthesis” (COMMISSARIAT A L'ENERGIE ATOMIQUE, priority 2005, published 2008)
